Measurements taken from ChEMBL document CHEMBL4425148, “Cytotoxic prenylated flavones from the stem and root bark of Daphne giraldii” (Bioorg Med Chem Lett, 2016).

Experiments:
Bcap37 = assay: Cytotoxicity against human Bcap37 cells assessed as reduction in cell growth incubated for 48 hrs by MTT assay; assay type: functional, cell-based; details: Bcap37, 48 h
MCF7 = assay: cells; details: Homo sapiens, MCF7, 48 h
U-251 = assay: Cytotoxicity against human U251 cells assessed as reduction in cell growth incubated for 48 hrs by MTT assay; assay type: functional, cell-based; details: U-251, 48 h
A549 = assay: Cytotoxicity against human A549 cells assessed as reduction in cell growth incubated for 48 hrs by MTT assay; assay type: functional, cell-based; details: A549, 48 h
HepG2 [1] = assay: cells; details: Homo sapiens, HepG2, 48 h
HepG2 [2] = assay: Induction of apoptosis in human HepG2 cells after 48 hrs by Annexin V-FITC/propidium iodide based flow cytometric analysis; assay type: functional, cell-based
HepG2 [3] = assay: Induction of apoptosis in human HepG2 cells assessed as late apoptotic cells at 2 uM after 48 hrs by Annexin V-FITC/propidium iodide based flow cytometric analysis (reference value: 3.81 %); assay type: functional
HepG2 [4] = assay: Induction of apoptosis in human HepG2 cells assessed as early apoptotic cells at 2 uM after 48 hrs by Annexin V-FITC/propidium iodide based flow cytometric analysis (reference value: 3.33 %); assay type: functional

| Structure (SMILES) | IC50 (Bcap37) [µM] | IC50 (MCF7) [µM] | IC50 (U-251) [µM] | IC50 (A549) [µM] | IC50 (HepG2 [1]) [µM] | Activity (HepG2 [2]) | Activity (HepG2 [3]) [%] | Activity (HepG2 [4]) [%] |
| --- | --- | --- | --- | --- | --- | --- | --- | --- |
| CC(C)=CCc1c(-c2ccc(O)cc2O)oc2c3c(cc(O)c2c1=O)OC(C)(C)C=C3 [MORUSIN] | 33.1 | 11.5 | 17.9 | 24.1 | 9.3 |  |  |  |
| COc1c(-c2ccc(O)c(O)c2)oc2c(CC=C(C)C)c(O)c(CC=C(C)C)c(O)c2c1=O | 45.4 | 18.8 | 17.3 | 25 | 14.1 |  |  |  |
| CC(C)=CCc1cc([C@@H]2CC(=O)c3ccc(O)cc3O2)c2c(c1O)OC(C)(C)CC2 | > 100 | > 100 | > 100 | 18.4 | > 100 |  |  |  |
| COc1c(-c2cc(O)c3c(c2)C=CC(C)(C)O3)oc2c3c(cc(O)c2c1=O)OC(C)(C)[C@@H](O)C3 | 20.8 | 6.98 | 12 | 5.39 | 4.26 | Dose-dependent effect | 14.32 | 13.77 |
| COc1ccc(-c2cc(=O)c3c(O)c(OC)c(O)cc3o2)cc1OC [EUPATILIN] | > 100 | 90.1 | > 100 | > 100 | 52.6 |  |  |  |
| COc1c(-c2cc(O)c3c(c2)C=CC(C)(C)O3)oc2c(CC=C(C)C)c(O)cc(O)c2c1=O | > 100 | 76.9 | > 100 | 66.8 | 36.7 |  |  |  |
| O=c1[nH]cc(F)c(=O)[nH]1 [FLUOROURACIL] | 37.1 |  | 38.7 | 24.7 | 39.7 |  |  |  |
